Reference: US12660819B2, “Herbicidal derivatives” (SYNGENTA CROP PROTECTION AG, priority 2020, dated 2026)

What was measured:
Type in all cases: in vivo
[1] = tested on: Zea mays (ZEAMX); test: Pre-emergence Test (glasshouse, percentage damage to the plant); details: 1000 g/ha unless otherwise stated, five-point scale
[2] = tested on: Echinochloa crus-galli (ECHCG); test: as above; details: 1000 g/ha unless otherwise stated, five-point scale
[3] = tested on: Amaranthus retoflexus (AMARE); test: as above; details: 1000 g/ha unless otherwise stated, five-point scale
[4] = tested on: Setaria faberi (SETFA); test: as above; details: 1000 g/ha unless otherwise stated, five-point scale
[5] = tested on: Ipomoea hederacea (IPOHE); test: as above; details: 1000 g/ha unless otherwise stated, five-point scale
[6] = tested on: Abutilon theophrasti (ABUTH); test: as above; details: 1000 g/ha unless otherwise stated, five-point scale
[7] = tested on: Ipomoea hederacea (IPOHE); test: Post-emergence Test (glasshouse, percentage damage to the plant); details: post-emergence spray, 1000 g/ha unless otherwise stated, evaluated after 13 days
Procedure, shortened: (§1)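 Seeds sown in pots in glasshouse (24/16 °C day/night, 14 h light, 65% humidity), then sprayed with compound at 1000 g/ha unless stated, from acetone/water 50:50 with 0.5% Tween 20. Damage assessed 13 days later on five-point scale (1=0–20% to 5=81–100%).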

[8] = tested on: Echinochloa crus-galli (ECHCG); test: as above; details: post-emergence spray, 1000 g/ha unless otherwise stated, evaluated after 13 days
Procedure, shortened: (§2)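 Compound formulated in 50:50 acetone/water with 0.5% Tween 20 was diluted to an aqueous spray and applied at 1000 g/ha, unless otherwise stated, onto sown pots. Evaluation after 13 days gave percentage damage, banded into a 1–5 score.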

[9] = tested on: Setaria faberi (SETFA); test: as above; details: post-emergence spray, 1000 g/ha unless otherwise stated, evaluated after 13 days
Procedure, shortened: as §1

[10] = tested on: Zea mays (ZEAMX); test: as above; details: post-emergence spray, 1000 g/ha unless otherwise stated, evaluated after 13 days
Procedure, shortened: as §1

[11] = tested on: Amaranthus retoflexus (AMARE); test: as above; details: post-emergence spray, 1000 g/ha unless otherwise stated, evaluated after 13 days
Procedure, shortened: as §2

[12] = tested on: Abutilon theophrasti (ABUTH); test: as above; details: post-emergence spray, 1000 g/ha unless otherwise stated, evaluated after 13 days
Procedure, shortened: as §2

SMILES | percentage damage to the plant, ZEAMX [1] | percentage damage to the plant, ECHCG [2] | percentage damage to the plant, AMARE [3] | percentage damage to the plant, SETFA [4] | percentage damage to the plant, IPOHE [5] | percentage damage to the plant, ABUTH [6] | Post-emergence Test IPOHE, percentage damage to the plant (five-point scale) [7] | Post-emergence Test ECHCG, percentage damage to the plant (five-point scale) [8] | Post-emergence Test SETFA, percentage damage to the plant (five-point scale) [9] | Post-emergence Test ZEAMX, percentage damage to the plant (five-point scale) [10] | Post-emergence Test AMARE, percentage damage to the plant (five-point scale) [11] | Post-emergence Test ABUTH, percentage damage to the plant (five-point scale) [12]
CCn1c(C)c(-c2ccc(Cl)cc2)c(=O)c(C(=O)O)c1-c1ccnc(Cl)c1 [Compound 143, 5-(4-chlorophenyl)-2-(2-chloro-4-pyridyl)-1-ethyl-6-methyl-4-oxo-pyridine-3-carboxylic acid] | 3 (3=41-60%) | 5 (5=81-100%) | 1 (1=0-20%) | 5 (5=81-100%) | 1 (1=0-20%) | 3 (3=41-60%) | 4 (4=61-80%) | 4 (4=61-80%) | 4 (4=61-80%) | 4 (4=61-80%) | 2 (2=21-40%) | 4 (4=61-80%)
CCn1c(C)c(-c2cccc(Cl)c2)c(=O)c(C(=O)O)c1-c1ccc(Cl)c(Cl)n1 [Compound 149, 5-(3-chlorophenyl)-2-(5,6-dichloro-2-pyridyl)-1-ethyl-6-methyl-4-oxo-pyridine-3-carboxylic acid] | 0 | 0 | 0 | 0 | 0 | 0 | 2 (2=21-40%) | 0 | 0 | 1 (1=0-20%) | 1 (1=0-20%) | 1 (1=0-20%)
CCn1c(C)c(-c2cncc(OC)c2)c(=O)c(C(=O)O)c1-c1ccc(Cl)c(Cl)c1 [Compound 61, 2-(3,4-dichlorophenyl)-1-ethyl-5-(5-methoxy-3-pyridyl)-6-methyl-4-oxo-pyridine-3-carboxylic acid] | 1 (1=0-20%) | 1 (1=0-20%) | 1 (1=0-20%) | 4 (4=61-80%) | 1 (1=0-20%) | 2 (2=21-40%) | 1 (1=0-20%) | 1 (1=0-20%) | 3 (3=41-60%) | 1 (1=0-20%) | 1 (1=0-20%) | 2 (2=21-40%)
CCn1c(C)c(-c2cccc(OCC(F)(F)F)c2)c(=O)c(C(=O)O)c1-c1ccc(Cl)c(Cl)c1 [Compound 110, 2-(3,4-dichlorophenyl)-1-ethyl-6-methyl-4-oxo-5-[3-(2,2,2-trifluoroethoxy)phenyl] pyridine-3-carboxylic acid] | 1 (1=0-20%) | 1 (1=0-20%) | 1 (1=0-20%) | 1 (1=0-20%) | 1 (1=0-20%) | 1 (1=0-20%) | 1 (1=0-20%) | 1 (1=0-20%) | 1 (1=0-20%) | 1 (1=0-20%) | 1 (1=0-20%) | 1 (1=0-20%)
CCn1c(C)c(-c2ccc(C(F)(F)F)c(Cl)c2)c(=O)c(C(=O)O)c1-c1ccc(Cl)c(Cl)c1 [Compound 64, 5-[3-chloro-4-(trifluoromethyl)phenyl]-2-(3,4-dichlorophenyl)-1-ethyl-6-methyl-4-oxo-pyridine-3-carboxylic acid] | 1 (1=0-20%) | 1 (1=0-20%) | 2 (2=21-40%) | 1 (1=0-20%) | 1 (1=0-20%) | 1 (1=0-20%) | 1 (1=0-20%) | 1 (1=0-20%) | 1 (1=0-20%) | 1 (1=0-20%) | 1 (1=0-20%) | 1 (1=0-20%)
CCn1c(C)c(-c2ccc(Cl)cc2)c(=O)c(C(=O)O)c1-c1ccc(Cl)cn1 [Compound 131, 5-(4-chlorophenyl)-2-(5-chloro-2-pyridyl)-1-ethyl-6-methyl-4-oxo-pyridine-3-carboxylic acid] | 0 | 0 | 0 | 0 | 0 | 0 | 1 (1=0-20%) | 0 | 3 (3=41-60%) | 2 (2=21-40%) | 1 (1=0-20%) | 1 (1=0-20%)
CCn1c(C)c(-c2ccc(C(F)(F)F)cc2)c(=O)c(C(=O)O)c1-c1ccc(Cl)c(Cl)n1 [Compound 151, 2-(5,6-dichloro-2-pyridyl)-1-ethyl-6-methyl-4-oxo-5-[4-(trifluoromethyl)phenyl] pyridine-3-carboxylic acid] | 2 (2=21-40%) | 4 (4=61-80%) | 1 (1=0-20%) | 4 (4=61-80%) | 5 (5=81-100%) | 1 (1=0-20%) | 3 (3=41-60%) | 3 (3=41-60%) | 4 (4=61-80%) | 2 (2=21-40%) | 0 | 3 (3=41-60%)
CCn1c(C)c(-c2cc(C)cc(C#N)c2)c(=O)c(C(=O)O)c1-c1ccc(Cl)c(Cl)c1 [Compound 80, 5-(3-cyano-5-methyl-phenyl)-2-(3,4-dichlorophenyl)-1-ethyl-6-methyl-4-oxo-pyridine-3-carboxylic acid] | 1 (1=0-20%) | 1 (1=0-20%) | 1 (1=0-20%) | 4 (4=61-80%) | 1 (1=0-20%) | 1 (1=0-20%) | 1 (1=0-20%) | 1 (1=0-20%) | 3 (3=41-60%) | 1 (1=0-20%) | 3 (3=41-60%) | 3 (3=41-60%)
CCn1c(C)c(-c2ccc(OC)c(C)c2)c(=O)c(C(=O)O)c1-c1ccc(Cl)c(Cl)c1 [Compound 100, 2-(3,4-dichlorophenyl)-1-ethyl-5-(4-methoxy-3-methyl-phenyl)-6-methyl-4-oxo-pyridine-3-carboxylic acid] | 1 (1=0-20%) | 1 (1=0-20%) | 1 (1=0-20%) | 4 (4=61-80%) | 1 (1=0-20%) | 1 (1=0-20%) | 1 (1=0-20%) | 1 (1=0-20%) | 3 (3=41-60%) | 3 (3=41-60%) | 2 (2=21-40%) | 3 (3=41-60%)
CCn1c(C)c(-c2ccc(C#N)cc2)c(=O)c(C(=O)O)c1-c1ccnc(Cl)c1 [Compound 142, 2-(2-chloro-4-pyridyl)-5-(4-cyanophenyl)-1-ethyl-6-methyl-4-oxo-pyridine-3-carboxylic acid] | 0 | 1 (1=0-20%) | 0 | 1 (1=0-20%) | 0 | 0 | 2 (2=21-40%) | 3 (3=41-60%) | 2 (2=21-40%) | 1 (1=0-20%) | 0 | 1 (1=0-20%)
